Test results as given in US5792780A, “Azole compounds, their production and use” (Takeda Chemical Industries, Ltd., priority 1993, dated 1998).

Columns and labels:
[1] = tested on: Candida albicans IFO 0583; assay: growth inhibition zone, paper disc agar diffusion; assay type: cell-based; details: IFO0583, 48 h, Table 6, Medium A, 1000 μg/ml, 28° C., two-day culture, read-out: Diameter of growth-inhibition zone
Method: Evaluation of the antifungal activities of the compound of the present invention was conducted by the following method: a sheet of filter paper disc (manufactured by Toyo Seisakusho, 8 mm in diameter) soaked in a 1000 μg/ml solution of a compound of the present invention in methanol was placed on an agar plate containing various fungi, which was incubated at 28° C. for two days, and the diameter of the growth inhibition zone around the filter paper disc was measured. The following culture media were used:
A: yeast nitrogen base agar medium (pH 7.0)
B: peptone-yeast extract-glucose agar medium (pH 7.0)

Candida albicans TA = assay: protective effect against experimental infection in mice (survival rate 7 days after infection); assay type: in vivo, Crj:CDF1 mice; details: po, 168 h, survival 7 days after infection
Method: (§1) Test Method: Five-week-old Crj:CDF1 mice were inoculated with the minimum lethal dose of Candida albicans TA intravenously. The test compound was suspended in a solution of 0.2% or 0.5% sodium carboxymethylcellulose (CMC). The suspension was administered orally once immediately after infection. The activity was expressed in terms of ED50 values calculated by the Reed and Muench method from the survival rate 7 days after infection.
as §1, with “of” for “of 0.2% or”

[2] = Table 7, P.O. once immediately after infection, 0.2% CMC
[3] = Table 8, P.O. once immediately after infection, 0.5% CMC
[4] = Table 9, compounds of formula (VI), P.O. once immediately after infection, 0.5% CMC

Row | SMILES | zone of inhibition at 1000 µg/mL [1] | ED50 (Candida albicans TA; [3]) | also measured
1 | C[C@@H](N1CC(=O)N(c2ccc(F)cc2F)C1=O)[C@](O)(Cn1cncn1)c1ccc(F)cc1F [Compound 3, 1-[(1R,2R)-2-(2,4-difluorophenyl)-2-hydroxy-1-methyl-3-(1H-1,2,4-triazol-1-yl)propyl]-3-(2,4-difluorophenyl)-2,4-imidazolidinedione] | 41 mm |  | ED50 (Candida albicans TA; [2]): 2 mg/kg
2 | C[C@@H](N1CCN(c2ccc(F)cc2)C1=O)[C@](O)(Cn1cncn1)c1ccc(F)cc1F [Compound 5, 1-[(1R,2R)-2-(2,4-difluorophenyl)-2-hydroxy-1-methyl-3-(1H-1,2,4-triazol-1-yl)propyl]-3-(4-fluorophenyl)-2-imidazolidinone] | 47 mm |  | 
3 | C[C@@H](N1CCN(c2ccc(OCC(F)(F)C(F)F)cc2)C1=O)[C@](O)(Cn1cncn1)c1ccc(F)cc1F [Compound 6, 1-[(1R,2R)-2-(2,4-difluorophenyl)-2-hydroxy-1-methyl-3-(1H-1,2,4-triazol-1-yl)propyl]-3-[4-(2,2,3,3-tetrafluoropropoxy)phenyl]-2-imidazolidinone] | 36 mm | 0.71 mg/kg | 
4 | C[C@@H](N1CCN(c2ccc(OC(F)(F)C(F)F)cc2)C1=O)[C@](O)(Cn1cncn1)c1ccc(F)cc1F [Compound 7, 1-[(1R,2R)-2-(2,4-difluorophenyl)-2-hydroxy-1-methyl-3-(1H-1,2,4-triazol-1-yl)propyl]-3-[4-(1,1,2,2-tetrafluoroethoxy)phenyl]-2-imidazolidinone] | 35 mm | 0.35 mg/kg | ED50 (Candida albicans TA; [2]): 0.65 mg/kg
5 | C[C@@H](N1CCN(c2ccc(OCC(F)(F)C(F)(F)F)cc2)C1=O)[C@](O)(Cn1cncn1)c1ccc(F)cc1F [Compound 8, 1-[(1R,2R)-2-(2,4-difluorophenyl)-2-hydroxy-1-methyl-3-(1H-1,2,4-triazol-1-yl)propyl]-3-[4-(2,2,3,3,3-pentafluoropropoxy)phenyl]-2-imidazolidinone] | 28 mm |  | ED50 (Candida albicans TA; [2]): 2 mg/kg
6 | C[C@@H](N1CCN(c2ccc(OCC(F)(F)F)cc2)C1=O)[C@](O)(Cn1cncn1)c1ccc(F)cc1F [Compound 9, 1-[(1R,2R)-2-(2,4-difluorophenyl)-2-hydroxy-1-methyl-3-(1H-1,2,4-triazol-1-yl)propyl]-3-[4-(2,2,2-trifluoroethoxy)phenyl]-2-imidazolidinone] | 41 mm |  | ED50 (Candida albicans TA; [2]): 0.65 mg/kg
7 | C[C@@H](N1CCN(c2ccc(Cl)cc2)C1=O)[C@](O)(Cn1cncn1)c1ccc(F)cc1F [Compound 10, 1-(4-chlorophenyl)-3-[(1R,2R)-2-(2,4-difluorophenyl)-2-hydroxy-1-methyl-3-(1H-1,2,4-triazol-1-yl)propyl]-2-imidazolidinone] | 42 mm |  | ED50 (Candida albicans TA; [2]): 1.8 mg/kg
8 | C[C@@H](N1CC(=O)N(c2ccc(OCC(F)(F)C(F)F)cc2)CC1=O)[C@](O)(Cn1cncn1)c1ccc(F)cc1F [Compound 11, 1-[(1R,2R)-2-(2,4-difluorophenyl)-2-hydroxy-1-methyl-3-(1H-1,2,4-triazol-1-yl)propyl]-4-[4-(2,2,3,3-tetrafluoropropoxy)phenyl]-2,5-piperazinedione] | 31 mm |  | 
9 | C[C@@H](N1CC(=O)N(c2ccc(OC(F)(F)C(F)F)cc2)CC1=O)[C@](O)(Cn1cncn1)c1ccc(F)cc1F [Compound 12, 1-[(1R,2R)-2-(2,4-difluorophenyl)-2-hydroxy-1-methyl-3-(1H-1,2,4-triazol-1-yl)propyl]-4-[4-(1,1,2,2-tetrafluoroethoxy)phenyl]-2,5-peperazinedione] |  | 2.8 mg/kg | 
10 | C[C@@H](N1CCN(c2ccc(OCC(F)(F)C(F)F)cc2)C(=O)C1=O)[C@](O)(Cn1cncn1)c1ccc(F)cc1F [Compound 14, 1-[(1R,2R)-2-(2,4-difluorophenyl)-2-hydroxy-1-methyl-3-(1H-1,2,4-triazol-1-yl)propyl]-4-[4-(2,2,3,3-tetrafluoropropoxy)phenyl]-2,3-piperazinedione] |  | 2.8 mg/kg | 
11 | C[C@@H](N1CCN(c2ccc(OC(F)(F)C(F)F)cc2)C(=O)C1=O)[C@](O)(Cn1cncn1)c1ccc(F)cc1F [Compound 15, 1-[(1R,2R)-2-(2,4-difluorophenyl)-2-hydroxy-1-methyl-3-(1H-1,2,4-triazol-1-yl)propyl]-4-[4-(1,1,2,2-tetrafluoroethoxy)phenyl]-2,3-piperazinedione] |  | 2 mg/kg | 
12 | C[C@@H](N1CCN(c2ccc(OC(F)(F)C(F)F)cc2)C1=O)[C@](O)(Cn1cncn1)c1ccccc1F [Compound 16, 1-[(1R,2R)-2-(2-fluorophenyl)-2-hydroxy-1-methyl-3-(1H-1,2,4-triazol-1-yl)propyl]-3-[4-(1,1,2,2-tetrafluoroethoxy)phenyl]-2-imidazolidinone] |  | 0.35 mg/kg | 
13 | C[C@@H](N1CCN(c2ccc(OCC(F)(F)C(F)F)cc2)C1=O)[C@](O)(Cn1cncn1)c1ccccc1F [Compound 17, 1-[(1R,2R)-2-(2-fluorophenyl)-2-hydroxy-1-methyl-3-(1H-1,2,4-triazol-1-yl)propyl]-3-[4-(2,2,3,3-tetrafluoropropoxy)phenyl]-2-imidazolidinone] |  | 0.65 mg/kg | 
14 | C[C@@H](N1CCN(c2ccc(OC(F)(F)C(F)F)cc2)C1=O)[C@](O)(Cn1cncn1)c1ccc(F)cc1 [Compound 18, 1-[(1R,2R)-2-(4-fluorophenyl)-2-hydroxy-1-methyl-3-(1H-1,2,4-triazol-1-yl)propyl]-3-[4-(1,1,2,2-tetrafluoroethoxy)phenyl]-2-imidazolidinone] |  | 0.35 mg/kg | 
15 | C[C@@H](N1CCN(c2ccc(OCC(F)(F)C(F)F)cc2)C1=O)[C@](O)(Cn1cncn1)c1ccc(F)cc1 [Compound 19, 1-[(1R,2R)-2-(4-fluorophenyl)-2-hydroxy-1-methyl-3-(1H-1,2,4-triazol-1-yl)propyl]-3-[4-(2,2,3,3-tetrafluoropropoxy)phenyl]-2-imidazolidinone] |  | 0.77 mg/kg | 
16 | C[C@@H](n1ccn(-c2ccc(OC(F)(F)C(F)F)cc2)c1=O)[C@](O)(Cn1cncn1)c1ccc(F)cc1 [Reference Example 45, 1-[(1R,2R)-2-(4-fluorophenyl)-2-hydroxy-1-methyl-3-(1H-1,2,4-triazol-1-yl)propyl]-3-[4-(1,1,2,2-tetrafluoroethoxy)phenyl]-2(1H,3H)-imidazolone] |  |  | ED50 (Candida albicans TA; [4]): 0.18 mg/kg
17 | C[C@@H](n1ccn(-c2ccc(OCC(F)(F)C(F)F)cc2)c1=O)[C@](O)(Cn1cncn1)c1ccc(F)cc1 [Reference Example 46, 1-[(1R,2R)-2-(4-fluorophenyl)-2-hydroxy-1-methyl-3-(1H-1,2,4-triazol-1-yl)propyl]-3-[4-(2,2,3,3-tetrafluoropropoxy)phenyl]-2(1H,3H)-imidazolone] |  |  | ED50 (Candida albicans TA; [4]): 0.32 mg/kg
18 | C[C@@H](n1ccn(-c2ccc(OC(F)(F)C(F)F)cc2)c1=O)[C@](O)(Cn1cncn1)c1ccccc1F [Reference Example 49, 1-[(1R,2R)-2-(2-fluorophenyl)-2-hydroxy-1-methyl-3-(1H-1,2,4-triazol-1-yl)propyl]-3-[4-(1,1,2,2-tetrafluoroethoxy)phenyl]-2(1H,3H)-imidazolone] |  |  | ED50 (Candida albicans TA; [4]): 0.18 mg/kg
19 | C[C@@H](n1ccn(-c2ccc(OCC(F)(F)C(F)F)cc2)c1=O)[C@](O)(Cn1cncn1)c1ccccc1F [Reference Example 50, 1-[(1R,2R)-2-(2-fluorophenyl)-2-hydroxy-1-methyl-3-(1H-1,2,4-triazol-1-yl)propyl]-3-[4-(2,2,3,3-tetrafluoropropoxy)phenyl]-2(1H,3H)-imidazolone] |  |  | ED50 (Candida albicans TA; [4]): 0.32 mg/kg
